Values after ≈ are worked out from the molar mass of the structure shown. Read-outs that look alike come from different tables or passages of the source.
How the values were obtained:
[1] = tested on: Acinetobacter baumannii ATCC 15473; assay: MIC by standard broth microdilution (CLSI), Acinetobacter baumannii; type: cell-based
Description: (§1) The in vitro activity against bacteria was determined by standard broth microdilution according to the Clinical and Laboratory Standards Institute CLSI document (Performance Standards for Antimicrobial Susceptibility Testing) M100Ed29E (2019) and (Methods for Dilution Antimicrobial Susceptibility Test for Bacteria That Grow Aerobically) M07Ed11 (2018). The data were obtained using cation-adjusted Mueller Hinton broth medium (CAMHB), and additionally iron-depleted CAMHB medium (ID-CAMHB) for compounds with iron-chelating activity.

[2] = tested on: Burkholderia cepacia CF and non-CF isolates, n = 5; assay: MIC by standard broth microdilution (CLSI), Burkholderia cepacia isolates; type: cell-based
Description: as §1

[3] = tested on: Pseudomonas aeruginosa ATCC 27853; assay: MIC by standard broth microdilution (CLSI), Pseudomonas aeruginosa; type: cell-based
Description: as §1

[4] = tested on: Klebsiella pneumoniae ATCC 43816; assay: MIC by standard broth microdilution (CLSI), Klebsiella pneumoniae; type: cell-based
Description: as §1

[5] = tested on: Escherichia coli ATCC 25922; assay: MIC by standard broth microdilution (CLSI), Escherichia coli; type: cell-based
Description: as §1

[6] = Chromeazurol assay (iron-chelating property); type: physicochemical; conditions: for IC50: absorbance at 630 nm
Description: The iron-chelating property was determined by the chromeazurol assay according to Schwyn B., et al, Universal Chemical Assay for the Detection and Determination of Siderophores, 1987. Analytical Biochemistry 160: 47-56. The assay uses the affinity of chrome azurol S/iron(III)/hexadecyltrimethylamimonium bromide for iron(III). When a strong chelator removes the iron from this dye, its color turns from blue to orange and the absorbance measured at 630 nm is indicative for the chelating properties of a siderophore.

[7] = ATCC15473, AB ATCC 15473, cation-adjusted Mueller Hinton broth (CAMHB), read-out: MIC in CAMHB medium
[8] = ATCC27853, PA ATCC 27853, cation-adjusted Mueller Hinton broth (CAMHB), read-out: MIC in CAMHB medium
[9] = ATCC43816, KP ATCC 43816, cation-adjusted Mueller Hinton broth (CAMHB), read-out: MIC in CAMHB medium
[10] = ATCC25922, EC ATCC 25922, cation-adjusted Mueller Hinton broth (CAMHB), read-out: MIC in CAMHB medium
[11] = ATCC15473, AB ATCC 15473, iron-depleted CAMHB (value in parentheses), read-out: MIC in ID-CAMHB medium
[12] = ATCC27853, PA ATCC 27853, iron-depleted CAMHB (value in parentheses), read-out: MIC in ID-CAMHB medium
[13] = ATCC43816, KP ATCC 43816, iron-depleted CAMHB (value in parentheses), read-out: MIC in ID-CAMHB medium
[14] = ATCC25922, EC ATCC 25922, iron-depleted CAMHB (value in parentheses), read-out: MIC in ID-CAMHB medium
[15] = read-out: MIC in ID-CAMHB medium

Row | SMILES | MIC [1, 7] | MIC ([2]; read-out: MIC in CAMHB medium) | MIC [3, 8] | MIC [4, 9] | MIC [5, 10] | IC50 [6] | MIC [1, 11] | MIC [3, 12] | MIC [4, 13] | MIC [5, 14] | MIC [2, 15] | iron-chelating activity compared with cefiderocol ([6]; versus the one measured for cefiderocol (table 1))
1 | Cn1c(N)c(NC(=O)NCCN)c[n+]1CC1=C(C(=O)O)N2C(=O)[C@@H](NC(=O)/C(=N\OC(C)(C)C(=O)[O-])c3nsc(N)n3)[C@H]2SC1 [Ceftolozane, reference compound] | 2 µg/mL (≈ 3 µM) | 2 to 8 µg/mL (≈ 3 to 12 µM) | 0.5 µg/mL (≈ 0.75 µM) | 0.25 µg/mL (≈ 0.375 µM) | 0.25 µg/mL (≈ 0.375 µM) | > 100 µM |  |  |  |  |  | 
2 | Nc1nc(/C(=N/OCF)C(=O)NC2C(=O)N3C(C(=O)O)=C(C=NOCCNC(=O)c4ccc(O)c(O)c4Cl)CSC23)ns1 (stereo not drawn) [Example 6, 7-[[(2Z)-2-(5-amino-1,2,4-thiadiazol-3-yl)-2-(fluoromethoxyimino)-acetyl]amino]-3-[2-[(2-chloro-3,4-dihydroxy-benzoyl)amino]ethoxyiminomethyl]-8-oxo-5-thia-1-azabicyclo[4.2.0]oct-2-ene-2-carboxylic acid] | 4 µg/mL (≈ 6.07 µM) |  | 4 µg/mL (≈ 6.07 µM) | ≤ 0.03 µg/mL | 0.25 µg/mL (≈ 0.379 µM) | 6.46 µM | 4 µg/mL (≈ 6.07 µM) | 1 µg/mL (≈ 1.52 µM) | ≤ 0.03 µg/mL | 0.12 µg/mL (≈ 0.182 µM) |  | 
3 | CC(C)(O/N=C(\C(=O)NC1C(=O)N2C(C(=O)O)=C(C=NOCCNC(=O)c3ccc(O)c(O)c3Cl)CSC12)c1csc(N)n1)C(=O)O (stereo not drawn) [Example 4, 7-[[(2Z)-2-(2-aminothiazol-4-yl)-2-(1-carboxy-1-methyl-ethoxy)imino-acetyl]amino]-3-[2-[(2-chloro-3,4-dihydroxy-benzoyl)amino]ethoxyiminomethyl]-8-oxo-5-thia-1-azabicyclo[4.2.0]oct-2-ene-2-carboxylic acid] | 4 µg/mL (≈ 5.62 µM) | 0.03 to 0.12 µg/mL (≈ 0.0421 to 0.169 µM) | 2 µg/mL (≈ 2.81 µM) | 0.06 µg/mL (≈ 0.0843 µM) | 0.25 µg/mL (≈ 0.351 µM) | 4.22 µM | 1 µg/mL (≈ 1.4 µM) | 0.5 µg/mL (≈ 0.702 µM) | 0.06 µg/mL (≈ 0.0843 µM) | 0.25 µg/mL (≈ 0.351 µM) | 0.03 to 0.06 µg/mL (≈ 0.0421 to 0.0843 µM) | an order of magnitude stronger
4 | CC(C)(O/N=C(\C(=O)N[C@@H]1C(=O)N2C(C(=O)[O-])=C(C[N+]3(CCNC(=O)c4ccc(O)c(O)c4Cl)CCCC3)CS[C@H]12)c1csc(N)n1)C(=O)O [Cefiderocol, cefiderocol, reference compound] | 0.25 µg/mL (≈ 0.332 µM) | ≤ 0.03 µg/mL | 1 µg/mL (≈ 1.33 µM) | 2 µg/mL (≈ 2.66 µM) | 0.25 µg/mL (≈ 0.332 µM) | 68.9 µM | 0.12 µg/mL (≈ 0.16 µM) | 0.5 µg/mL (≈ 0.665 µM) | 0.5 µg/mL (≈ 0.665 µM) | 0.25 µg/mL (≈ 0.332 µM) | ≤ 0.03 µg/mL | 
5 | CC(C)(O/N=C(\C(=O)N[C@@H]1C(=O)N2C(C(=O)O)=C(C=NOCc3cc(=O)c(O)cn3O)CS[C@H]12)c1csc(N)n1)C(=O)O [Example 1, (6R,7R)-7-[[(2Z)-2-(2-aminothiazol-4-yl)-2-(1-carboxy-1-methyl-ethoxy)imino-acetyl]amino]-3-[(1,5-dihydroxy-4-oxo-2-pyridyl)methoxyiminomethyl]-8-oxo-5-thia-1-azabicyclo[4.2.0]oct-2-ene-2-carboxylic acid] | 2 µg/mL (≈ 3.14 µM) | 0.03 to 0.06 µg/mL (≈ 0.0471 to 0.0941 µM) | 1 µg/mL (≈ 1.57 µM) | ≤ 0.03 µg/mL | 0.12 µg/mL (≈ 0.188 µM) | 7.18 µM | 0.5 µg/mL (≈ 0.784 µM) | 0.25 µg/mL (≈ 0.392 µM) | 0.25 µg/mL (≈ 0.392 µM) | 0.25 µg/mL (≈ 0.392 µM) | 0.03 to 0.12 µg/mL (≈ 0.0471 to 0.188 µM) | 
6 | CC(C)(O/N=C(\C(=O)NC1C(=O)N2C(C(=O)O)=C(C=NOCCNC(=O)c3ccc(O)c(O)c3Cl)CSC12)c1nsc(N)n1)C(=O)O (stereo not drawn) [Example 5, 7-[[(2Z)-2-(5-amino-1,2,4-thiadiazol-3-yl)-2-(1-carboxy-1-methyl-ethoxy)imino-acetyl]amino]-3-[2-[(2-chloro-3,4-dihydroxy-benzoyl)amino]ethoxyiminomethyl]-8-oxo-5-thia-1-azabicyclo[4.2.0]oct-2-ene-2-carboxylic acid] | 1 µg/mL (≈ 1.4 µM) | 0.03 to 0.12 µg/mL (≈ 0.0421 to 0.168 µM) | 2 µg/mL (≈ 2.8 µM) | 0.5 µg/mL (≈ 0.701 µM) | 0.25 µg/mL (≈ 0.351 µM) | 6.41 µM | 0.5 µg/mL (≈ 0.701 µM) | 0.5 µg/mL (≈ 0.701 µM) | 1 µg/mL (≈ 1.4 µM) | 0.25 µg/mL (≈ 0.351 µM) | 0.03 to 0.12 µg/mL (≈ 0.0421 to 0.168 µM) | 
